Patent US20220259212A1, “INHIBITORS OF INDOLEAMINE 2,3-DIOXYGENASE AND/OR TRYPTOPHAN 2,3-DIOXYGENASE” (Idorsia Pharmaceuticals Ltd, priority 2019, published 2022)

Columns and labels:
[1] = biological target: T1, Recombinant human TDO comprising amino acids 19-407 (Homo sapiens, UniProt P48775); experiment: TDO2 enzymatic assay (NFK quantified by LCMS); assay type: biochemical; conditions: 15 nM enzyme, 200 μM L-tryptophan, 30 min pre-incubation, pH7; mean if measured multiple times; read-out: hTDO activity (IC50 in nM)
T1 construct: human TDO comprising amino acids 19-407; hexahistidine (N); made in house; host or cells: E. coli
In short: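 E. coli-expressed N-terminal His-tagged TDO (15 nM) in pH 7 phosphate buffer with ascorbate and catalase, preincubated 30 min at RT with compound (10 μM to 0.5 nM, 0.6% DMSO). Reaction started with 200 μM L-tryptophan for 30 min at RT; NFK measured by LCMS against deuterated internal standard, IC50 by four-parameter fit, duplicates.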

[2] = biological target: T2, Recombinant full-length human IDO1 (Homo sapiens, UniProt P14902); experiment: IDO1 enzymatic assay (NFK quantified by LCMS); assay type: biochemical; conditions: 2 nM enzyme, 5 μM L-tryptophan, 30 min pre-incubation, pH6.5; mean if measured multiple times; read-out: hIDO activity (IC50 in nM)
T2 construct: Recombinant full-length human IDO1 with a N-terminal hexahistidine tag; hexahistidine (N); made in house; host or cells: E. coli
In short: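 His-tagged full-length IDO1 (E. coli, 2 nM final) in pH 6.5 phosphate with ascorbate, methylene blue and catalase was preincubated 30 min at RT with compound (10 µM–0.5 nM, 0.6% DMSO), then run 30 min at RT with 5 µM L-Trp. NFK was measured by LCMS against a d5-Trp standard. IC50 came from a four-parameter fit of duplicates.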

IDO1 in SKOV3 cells = biological target: T3, IDO1 in SKOV3 cells (Homo sapiens, UniProt P14902); experiment: Cell-based IDO inhibitory activity in IFNγ-stimulated SKOV3 cells (NFK + kynurenine by LCMS); conditions: IFNγ 50 ng/ml, 200 uM L-tryptophan, 24 hours
T3 construct: SKOV3 cells (NCI, No. 0503405) which upregulate IDO1 after stimulation with IFNγ; host or cells: SKOV3 cells stimulated with IFNγ
In short: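 SKOV3 cells (4000/well, pre-cultured 24 h) were treated with compound (10 uM-40 nM) plus 200 uM L-tryptophan and 50 ng/ml IFNγ for 24 h at 37° C. N-formylkynurenine plus kynurenine in supernatant was measured by LCMS against a d5-tryptophan internal standard. IC50 was fitted against 0.2% DMSO and reference-inhibitor controls, in duplicate, with repeat measurements averaged.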

T1 sequence (P48775 19-406 limits assumed): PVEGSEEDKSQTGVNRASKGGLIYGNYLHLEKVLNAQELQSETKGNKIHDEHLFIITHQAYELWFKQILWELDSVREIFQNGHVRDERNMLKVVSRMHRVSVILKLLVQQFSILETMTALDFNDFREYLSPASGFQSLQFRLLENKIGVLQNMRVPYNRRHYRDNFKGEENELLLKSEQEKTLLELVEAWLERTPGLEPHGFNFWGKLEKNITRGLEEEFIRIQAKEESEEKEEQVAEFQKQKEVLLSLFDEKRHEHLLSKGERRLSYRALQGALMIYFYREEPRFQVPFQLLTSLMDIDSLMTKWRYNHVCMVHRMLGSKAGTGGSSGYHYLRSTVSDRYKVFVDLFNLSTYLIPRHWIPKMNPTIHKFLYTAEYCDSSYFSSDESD
T3 sequence (P14902 whole entry): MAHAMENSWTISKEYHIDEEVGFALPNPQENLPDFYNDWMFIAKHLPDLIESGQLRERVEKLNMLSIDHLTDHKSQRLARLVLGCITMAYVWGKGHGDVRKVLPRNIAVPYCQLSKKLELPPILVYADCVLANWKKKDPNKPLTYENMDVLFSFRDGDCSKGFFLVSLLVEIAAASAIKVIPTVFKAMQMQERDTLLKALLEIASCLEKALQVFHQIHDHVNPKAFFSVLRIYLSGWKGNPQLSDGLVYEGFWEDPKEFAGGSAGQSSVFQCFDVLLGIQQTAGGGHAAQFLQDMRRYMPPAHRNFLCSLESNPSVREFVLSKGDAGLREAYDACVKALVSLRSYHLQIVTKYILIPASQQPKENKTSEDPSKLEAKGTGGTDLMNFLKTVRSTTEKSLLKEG
T2 sequence (P14902 whole entry): as above

Structure (SMILES) | IC50 [1] [nM] | IC50 [2] [nM] | IC50 (IDO1 in SKOV3 cells) [nM]
COc1ccc(-n2cc([C@H](O)c3c(C4CC4)ncc4cncn34)nn2)cc1F [Example 21, (R)-(6-Cyclopropyl-imidazo[1,5-a]pyrazin-5-yl)-[1-(3-fluoro-4-methoxy-phenyl)-1H-[1,2,3]triazol-4-yl]-methanol] | > 10200 | 8.24 | 33.2
COc1cc(F)c(-n2cc([C@H](O)c3c(C4CC4)ncc4cncn34)nn2)cc1F [Example 22, (R)-(6-Cyclopropyl-imidazo[1,5-a]pyrazin-5-yl)-[1-(2,5-difluoro-4-methoxy-phenyl)-1H-[1,2,3]triazol-4-yl]-methanol] | > 10200 | 6.36 | 20.2
COCc1ccc(-n2cc([C@H](O)c3c(C4CC4)ncc4cncn34)nn2)cc1 [Example 24, (R)-(6-Cyclopropyl-imidazo[1,5-a]pyrazin-5-yl)-[1-(4-methoxymethyl-phenyl)-1H-[1,2,3]triazol-4-yl]-methanol] | > 10200 | 8.36 | 399
COc1cc(F)c(-n2cc([C@H](O)c3c(C4CC4)ncc4cncn34)nn2)cc1Cl [Example 25, (R)-[1-(5-Chloro-2-fluoro-4-methoxy-phenyl)-1H-[1,2,3]triazol-4-yl]-(6-cyclopropyl-imidazo[1,5-a]pyrazin-5-yl)-methanol] | > 10200 | 5.86 | 33
COc1c(F)cc(-n2cc([C@H](O)c3c(C4CC4)ncc4cncn34)nn2)cc1Cl [Example 26, (R)-[1-(3-Chloro-5-fluoro-4-methoxy-phenyl)-1H-[1,2,3]triazol-4-yl]-(6-cyclopropyl-imidazo[1,5-a]pyrazin-5-yl)-methanol] | > 10200 | 4.5 | 74.3
Oc1ccc(-n2cc([C@H](O)c3c(C4CC4)ncc4cncn34)nn2)cc1F [Example 27, 4-{4-[(R)-(6-Cyclopropyl-imidazo[1,5-a]pyrazin-5-yl)-hydroxy-methyl]-[1,2,3]triazol-1-yl}-2-fluoro-phenol] | > 10200 | 5.6 | 47.4
O[C@@H](c1cn(-c2ccc(OCC3(F)COC3)c(F)c2)nn1)c1c(C2CC2)ncc2cncn12 [Example 28, (R)-(6-Cyclopropyl-imidazo[1,5-a]pyrazin-5-yl)-{1-[3-fluoro-4-(3-fluoro-oxetan-3-ylmethoxy)-phenyl]-1H-[1,2,3]triazol-4-yl}-methanol] | > 10200 | 6.28 | 19.5
CC(C)(O)COc1ccc(-n2cc([C@H](O)c3c(C4CC4)ncc4cncn34)nn2)cc1F [Example 29, 1-(4-{4-[(R)-(6-Cyclopropyl-imidazo[1,5-a]pyrazin-5-yl)-hydroxy-methyl]-[1,2,3]triazol-1-yl}-2-fluoro-phenoxy)-2-methyl-propan-2-ol] | > 10200 | 7.74 | 29.9
COc1ccc(-n2cc([C@H](O)c3c(Cl)ccc4cncn34)nn2)cc1 [Example 30, (R)-(6-Chloro-imidazo[1,5-a]pyridin-5-yl)-[1-(4-methoxy-phenyl)-1H-[1,2,3]triazol-4-yl]-methanol] | 8600 | 3.68 | 52.4
COc1cc(F)c(-n2cc([C@H](O)c3c(Cl)ccc4cncn34)nn2)cc1F [Example 31, (R)-(6-Chloro-imidazo[1,5-a]pyridin-5-yl)-[1-(2,5-difluoro-4-methoxy-phenyl)-1H-[1,2,3]triazol-4-yl]-methanol] | > 10200 | 1.13 | 9.2
COc1ccc(-n2cc([C@H](O)c3c(C4CC4)ncc4cncn34)nn2)c(F)c1Cl [Example 33, (R)-[1-(3-Chloro-2-fluoro-4-methoxy-phenyl)-1H-[1,2,3]triazol-4-yl]-(6-cyclopropyl-imidazo[1,5-a]pyrazin-5-yl)-methanol] | > 10200 | 5.33 | 127
O[C@@H](c1cn(-c2ccc(OCC3COC3)c(F)c2)nn1)c1c(C2CC2)ncc2cncn12 [Example 36, (R)-(6-Cyclopropyl-imidazo[1,5-a]pyrazin-5-yl)-{1-[3-fluoro-4-(oxetan-3-ylmethoxy)-phenyl]-1H-[1,2,3]triazol-4-yl}-methanol] | > 10200 | 8.33 | 16.8

Next, values leading:

IC50 [1] [nM] | IC50 [2] [nM] | IC50 (IDO1 in SKOV3 cells) [nM] | Structure (SMILES)
> 10200 | 4.29 | 84.9 | Cc1ccc2cncn2c1[C@@H](O)c1cn(-c2ccccc2)nn1 [Example 2a, (R)-(6-Methyl-imidazo[1,5-a]pyridin-5-yl)-(1-phenyl-1H-[1,2,3]triazol-4-yl)-methanol]
> 10200 | 16.7 | 282 | O[C@@H](c1cn(-c2ccccc2)nn1)c1c(C2CC2)ncc2cncn12 [Example 3a, (R)-(6-Cyclopropyl-imidazo[1,5-a]pyrazin-5-yl)-(1-phenyl-1H-[1,2,3]triazol-4-yl)-methanol]
> 10200 | 361 | 703 | Oc1ccc(-n2cc([C@@H](O)c3c(C4CC4)ccc4cncn34)nn2)cc1Cl [Example 7b, 2-Chloro-4-{4-[(S)-(6-cyclopropyl-imidazo[1,5-a]pyridin-5-yl)-hydroxy-methyl]-[1,2,3]triazol-1-yl}-phenol]
> 10200 | 9.85 | 18.9 | COc1ccc(-n2cc([C@H](O)c3c(C4CC4)ccc4cncn34)nn2)cc1Cl [Example 8a, (R)-[1-(3-Chloro-4-methoxy-phenyl)-1H-[1,2,3]triazol-4-yl]-(6-cyclopropyl-imidazo[1,5-a]pyridin-5-yl)-methanol]
> 10200 | 2.93 | 12.5 | Oc1ccc(-n2cc([C@H](O)c3c(C4CC4)ncc4cncn34)nn2)cc1Cl [Example 10a, 2-Chloro-4-{4-[(R)-(6-cyclopropyl-imidazo[1,5-a]pyrazin-5-yl)-hydroxy-methyl]-[1,2,3]triazol-1-yl}-phenol]
> 10200 | 8.17 | 23.7 | COc1ccc(-n2cc([C@H](O)c3c(C4CC4)ncc4cncn34)nn2)cc1Cl [Example 11a, (R)-[1-(3-Chloro-4-methoxy-phenyl)-1H-[1,2,3]triazol-4-yl]-(6-cyclopropyl-imidazo[1,5-a]pyrazin-5-yl)-methanol]
2190 | 1.84 | 10.7 | COc1ccc(-n2nnc([C@H](O)c3c(Cl)ccc4cncn34)c2C)cc1 [Example 20a, (R)-(6-Chloro-imidazo[1,5-a]pyridin-5-yl)-[1-(4-methoxy-phenyl)-5-methyl-1H-[1,2,3]triazol-4-yl]-methanol]
> 10200 | 1.82 | 7.92 | CCc1ccc2cncn2c1[C@@H](O)c1cn(-c2ccc(OC)cc2)nn1 [Example 34a, (R)-(6-Ethyl-imidazo[1,5-a]pyridin-5-yl)-[1-(4-methoxy-phenyl)-1H-[1,2,3]triazol-4-yl]-methanol]
> 10200 | 2.39 | 0.95 | CCc1ccc2cncn2c1[C@@H](O)c1cn(-c2cc(F)c(OC)cc2F)nn1 [Example 35a, (R)-[1-(2,5-Difluoro-4-methoxy-phenyl)-1H-[1,2,3]triazol-4-yl]-(6-ethyl-imidazo[1,5-a]pyridin-5-yl)-methanol]
